Measurements taken from patent publication US5446026A, “Potent non-opiate analgesic” (Advanced Peptides & Biotechnology Sciences, priority 1993, dated 1995).
Like-named read-outs stand apart in the source and are kept apart here. No end group written: not given here.

Columns and labels:
calcitonin receptor = molecular target: T1, calcitonin receptor (Homo sapiens, UniProt P30988); experiment: in vitro receptor binding, displacement of 125-I calcitonin
T1 sequence (P30988 25-474): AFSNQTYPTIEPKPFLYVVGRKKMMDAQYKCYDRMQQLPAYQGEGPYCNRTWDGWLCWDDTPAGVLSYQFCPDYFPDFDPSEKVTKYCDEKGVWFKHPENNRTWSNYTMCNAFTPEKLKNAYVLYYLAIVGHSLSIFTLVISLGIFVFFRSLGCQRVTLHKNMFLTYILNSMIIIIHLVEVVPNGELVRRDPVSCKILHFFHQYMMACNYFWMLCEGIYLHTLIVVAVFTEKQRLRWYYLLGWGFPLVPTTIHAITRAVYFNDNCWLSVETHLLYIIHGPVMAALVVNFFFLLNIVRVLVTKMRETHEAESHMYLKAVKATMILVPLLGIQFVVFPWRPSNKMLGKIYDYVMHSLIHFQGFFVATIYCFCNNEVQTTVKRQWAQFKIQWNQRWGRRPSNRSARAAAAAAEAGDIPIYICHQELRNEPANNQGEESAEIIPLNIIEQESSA

[1] = molecular target: T2, 69 Kd receptor molecule (calcitonin receptor) (Homo sapiens, UniProt P30988); experiment: crosslinking / SDS-PAGE in vitro receptor binding
T2 sequence (P30988 25-474): T1 sequence (P30988 25-474)

[2] = three classical tests of rodent analgesia (hot plate, paw pressure, tail flick); type: in vivo; conditions: paw pressure and tail flick tests (FIG. 4)
[3] = analgesia after subcutaneous injection (tail-flick and hot plate tests); type: in vivo, rodent
[4] = observation of rodent behavior, righting reflex, inclined plane; type: in vivo
Description: (§1) Studies of analgesia in monkeys is underway and following animal toxicity human trials should be undertaken. […] We would expect that this peptide, like other peptide analogs of naturally occurring modulatory substances, would be potent in quite low (milligram) doses in humans and should be able to alleviate quite severe pain even in these low doses. [drawing 1] R1, R2 =OH: Cholic Acid 89.010a R1 =H, R2 =OH: Chenodeoxycholic Acid 89.010b R1 =OH, R2 =H: Deoxycholic Acid [drawing 2] PEPTIDE-Pro-Arg-Thr-Asn-Thr-Gly-Ser-Gly-Thr-Pro-amide.

bone = experiment: uptake of calcium into bone; conditions: under the conditions tested
Description: as §1

[5] = rats; cited from earlier work
[6] = cited from earlier work
[7] = periaqueductal gray administration; cited from earlier work

Pro-Arg-Thr-Asn-Thr-Gly-Ser-Gly-Thr-Pro-NH2 (PRTNTGSGTP-NH2) [PD89.010b, modified calcitonin decapeptide]
in vitro receptor binding as human calcitonin analog (calcitonin receptor; displacement of 125-I human calcitonin (FIG. 2A)): potent | in vitro receptor binding as salmon calcitonin analog (calcitonin receptor; displacement of 125I salmon calcitonin (FIG. 2B)): weak | displacement of iodinated salmon calcitonin from the 69 Kd receptor molecule ([1]; at 1 μM (FIG. 3A)): completely displaces | displacement of iodinated human calcitonin from the 69 Kd receptor molecule ([1]; at 1 μM (FIG. 3B)): completely displaces | analgesic responses [2]: significant and profound analgesic responses | onset of analgesia compared with morphine [3]: much more rapid onset of analgesia | analgesia, tail-flick test ([3]; one quarter the molar equivalent of morphine (FIG. 5A)): profound and long lived analgesia | analgesia, hot plate test ([3]; one quarter the molar equivalent of morphine (FIG. 5B)): profound and long lived analgesia | analgesia at two hours, the last time point tested [3]: still is showing significant analgesia | behavior and balance on an inclined plane ([4]; in vivo): remained unchanged | righting reflex ([4]; in vivo): remained unchanged | behavioral incapacitation effects ([4]; trained observers of rodent behavior): no obvious behavioral incapacitation effects | uptake of calcium into bone (bone): does not appear to enhance

CC(C)C[C@H](NC(=O)[C@H](CCCCN)NC(=O)CNC(=O)[C@H](CC(C)C)NC(=O)[C@@H](NC(=O)[C@@H]1CSSC[C@H](N)C(=O)N[C@@H](CO)C(=O)N[C@@H](CC(N)=O)C(=O)N[C@@H](CC(C)C)C(=O)N[C@@H](CO)C(=O)N[C@@H]([C@@H](C)O)C(=O)N1)C(C)C)C(=O)N[C@@H](CO)C(=O)N[C@@H](CCC(N)=O)C(=O)N[C@@H](CCC(=O)O)C(=O)N[C@@H](CC(C)C)C(=O)N[C@@H](Cc1c[nH]cn1)C(=O)N[C@@H](CCCCN)C(=O)N[C@@H](CC(C)C)C(=O)N[C@@H](CCC(N)=O)C(=O)N[C@H](C(=O)N[C@@H](Cc1ccc(O)cc1)C(=O)N1CCC[C@H]1C(=O)N[C@@H](CCCNC(=N)N)C(=O)N[C@H](C(=O)N[C@@H](CC(N)=O)C(=O)N[C@H](C(=O)NCC(=O)N[C@@H](CO)C(=O)NCC(=O)N[C@H](C(=O)N1CCC[C@H]1C(N)=O)[C@@H](C)O)[C@@H](C)O)[C@@H](C)O)[C@@H](C)O [salmon calcitonin, reference compound]
uptake of calcium into bone (bone): profound response

Calcitonin
analgesic activity [5]: extremely potent analgesic | penetration into the brain ([6]; human, in vivo): does not penetrate into the brain | side effects ([6]; human, in vivo): No important side effects | analgesic activity ([6]; terminal cancer patients, injection into the subarachnoid space): extremely potent analgesic

CC(C)C[C@H](NC(=O)[C@H](Cc1ccccc1)NC(=O)CNC(=O)CNC(=O)[C@@H](N)Cc1ccc(O)cc1)C(=O)O [enkephalin]
analgesia [7]: weak and transient

CN1CC[C@]23c4c5ccc(O)c4O[C@H]2[C@@H](O)C=C[C@H]3[C@H]1C5 [morphine, reference compound]
analgesia at two hours, the last time point tested [3]: has already returned to baseline
